Assay results: US11325938B2, “CD73 inhibitors” (ORIC Pharmaceuticals, Inc., priority 2018, dated 2022)

Each molecule was assayed against CD73 (Homo sapiens (Human), UniProt P21589) (assay: Biochemical assay: inhibition of CD73 activity (AMP hydrolysis, Malachite Green readout)). Conditions: CD73 0.3208 nM, AMP 15 μM, 25 mM Tris-HCl pH 7.4, RT, absorbance 620 nm.
How it was run: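 Phosphate from AMP hydrolysis (15 μM AMP, 10 min, RT) was detected by Malachite Green absorbance to give IC50s. Enzyme at 320 pM was first exposed 15 min to compounds, dosed from 100 μM in ½-log steps, in Tris pH 7.4 buffer with MgCl2, Brij-35 and BSA.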

CD73, sequence (P21589 27-574): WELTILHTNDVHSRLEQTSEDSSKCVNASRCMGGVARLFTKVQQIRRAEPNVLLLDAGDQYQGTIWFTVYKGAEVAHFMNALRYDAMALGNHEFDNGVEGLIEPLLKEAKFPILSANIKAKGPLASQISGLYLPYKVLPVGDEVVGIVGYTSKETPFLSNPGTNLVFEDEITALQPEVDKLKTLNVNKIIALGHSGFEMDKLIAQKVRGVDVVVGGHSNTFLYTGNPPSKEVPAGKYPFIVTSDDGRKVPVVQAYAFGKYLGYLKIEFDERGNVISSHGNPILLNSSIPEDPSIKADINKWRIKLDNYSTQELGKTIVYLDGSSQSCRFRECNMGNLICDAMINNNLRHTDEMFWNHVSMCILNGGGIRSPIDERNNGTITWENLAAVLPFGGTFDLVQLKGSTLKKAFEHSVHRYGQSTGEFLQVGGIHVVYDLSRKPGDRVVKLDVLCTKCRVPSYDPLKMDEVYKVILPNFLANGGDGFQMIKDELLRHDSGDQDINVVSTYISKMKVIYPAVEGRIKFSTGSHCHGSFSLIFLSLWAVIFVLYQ

| SMILES | IC50 |
| --- | --- |
| NC(=O)OCC(CO)(OC[C@H]1O[C@@H](n2ncc3c(NC4CCCC4)nc(Cl)nc32)[C@H](O)[C@@H]1O)P(=O)(O)O (mixture of isomers) [Example 178, rac-(1-(carbamoyloxy)-2-(((2R,3S,4R,5R)-5-(6-chloro-4-(cyclopentylamino)-1H-pyrazolo[3,4-d]pyrimidin-1-yl)-3,4-dihydroxytetrahydrofuran-2-yl)methoxy)-3-hydroxypropan-2-yl)phosphonic acid] | ≤ 100 nM |
| C[C@](CO)(OC[C@H]1O[C@@H](n2ncc3c(N[C@@H]4CCc5ccc(F)cc54)nc(Cl)nc32)[C@H](O)[C@@H]1O)P(=O)(O)O [Example 108, ((S)-2-(((2R,3S,4R,5R)-5-(6-chloro-4-(((R)-6-fluoro-2,3-dihydroxy-1H-inden-1-yl)amino)-1H-pyrazolo[3,4-d]pyrimidin-1-yl)-3,4-dihydroxytetrahydrofuran-2-yl)methoxy)-1-hydroxypropan-2-yl)phosphonic acid] | ≤ 100 nM |
| CCS(=O)(=O)C[C@](C)(OC[C@H]1O[C@@H](n2ncc3c(NC4CCCC4)nc(Cl)nc32)[C@H](O)[C@@H]1O)P(=O)(O)O [Example 137, ((R)-2-(((2R,3S,4R,5R)-5-(6-chloro-4-(cyclopentylamino)-1H-pyrazolo[3,4-d]pyrimidin-1-yl)-3,4-dihydroxytetrahydrofuran-2-yl)methoxy)-1-(ethylsulfonyl)propan-2-yl)phosphonic acid] | ≤ 100 nM |
| C[C@@](CO)(OC[C@H]1O[C@@H](n2ncc3c(NC4CCCC4)cc(Cl)nc32)[C@H](O)[C@@H]1O)P(=O)(O)O (racemic) [Example 194, rac-((R)-2-(((2R,3S,4R,5R)-5-(6-chloro-4-(cyclopentylamino)-1H-pyrazolo[3,4-b]pyridin-1-yl)-3,4-dihydroxytetrahydrofuran-2-yl)methoxy)-1-hydroxypropan-2-yl)phosphonic acid] | ≤ 100 nM |

Results, then the molecule that gave them:

| IC50 | SMILES |
| --- | --- |
| ≤ 100 nM | C[C@](Cc1nn[nH]n1)(OC[C@H]1O[C@@H](n2ncc3c(NC4CCCC4)nc(Cl)nc32)[C@H](O)[C@@H]1O)P(=O)(O)O [Example 120, ((S)-2-(((2R,3S,4R,5R)-5-(6-chloro-4-(cyclopentylamino)-1H-pyrazolo[3,4-d]pyrimidin-1-yl)-3,4-dihydroxytetrahydrofuran-2-yl)methoxy)-1-(2H-tetrazol-5-yl)propan-2-yl)phosphonic acid] |
| 100 to 1000 nM | COCC(OC[C@@H]1O[C@H](n2ncc3c(NC4CCCC4)nc(Cl)nc32)[C@@H](O)[C@H]1O)(C(=O)O)P(=O)(O)O (mixture of isomers) [Example 220, rac-(R)-2-(((2S,3R,4S,5S)-5-(6-chloro-4-(cyclopentylamino)-1H-pyrazolo[3,4-d]pyrimidin-1-yl)-3,4-dihydroxytetrahydrofuran-2-yl)methoxy)-3-methoxy-2-phosphonopropanoic acid] |
| ≤ 100 nM | C[C@](CO)(OC[C@H]1O[C@@H](n2nnc3c(NC4CCCC4)cc(Cl)nc32)[C@H](O)[C@@H]1O)P(=O)(O)O [Example 140, ((S)-2-(((2R,3S,4R,5R)-5-(5-chloro-7-(cyclopentylamino)-3H-[1,2,3]triazolo[4,5-b]pyridin-3-yl)-3,4-dihydroxytetrahydrofuran-2-yl)methoxy)-1-hydroxypropan-2-yl)phosphonic acid] |
| ≤ 100 nM | O=P(O)(O)[C@](CO)(Cc1ncco1)OC[C@H]1O[C@@H](n2ncc3c(NC4CCCC4)nc(Cl)nc32)[C@H](O)[C@@H]1O [Example 92, ((S)-2-(((2R,3S,4R,5R)-5-(6-chloro-4-(cyclopentylamino)-1H-pyrazolo[3,4-d]pyrimidin-1-yl)-3,4-dihydroxytetrahydrofuran-2-yl)methoxy)-1-hydroxy-3-(oxazol-2-yl)propan-2-yl)phosphonic acid] |
| ≤ 100 nM | COCC(C)(OC[C@H]1O[C@@H](n2ncc3c(NC4CCCC4)nc(CO)nc32)[C@H](O)[C@@H]1O)P(=O)(O)O (stereo partly drawn) [Example 90, (2-(((2R,3S,4R,5R)-5-(4-(Cyclopentylamino)-6-(hydroxymethyl)-1H-pyrazolo[3,4-d]pyrimidin-1-yl)-3,4-dihydroxytetrahydrofuran-2-yl)methoxy)-1-methoxypropan-2-yl)phosphonic acid] |
